Experimental findings from ChEMBL document CHEMBL6121066, “Structure-Activity Relationship Studies of DNA Methyltransferase 1 Monovalent Degraders” (J Med Chem, 2025) are described below.

Assay [1] has as its system HCT-116. Put plainly: Induction of molecular glue effect mediated DNMT1 degradation in human HCT-116 cells assessed as reduction in DNMT1 protein level at 500 nM by Western blot analysis. The assay is classed as cell-based. Conditions: time 2-24 hrs. On the technique in general: A western blot detects proteins with antibodies after separation by electrophoresis.
In assay [2] the test system is MDA-MB-468. Put plainly: Induction of molecular glue effect mediated DNMT1 degradation in human MDA-MB-468 cells assessed as reduction in DNMT1 protein level at 100 nM preincubated with MLN4924 for 2 hrs followed by compound addition and measured after 24 hrs by Western blot analysis. The assay is classed as cell-based.
The target in assay [3] is Histone-lysine N-methyltransferase 2A (Homo sapiens) (UniProt Q03164). The experiment in a line: Inhibition of human MLL1 using nucleosomes and SAM as substrate at 1 uM by radioisotope-based MT HotSpot assay relative to control.
The target of assay [4] is Histone-lysine N-methyltransferase EZH2 (Homo sapiens) (UniProt Q15910). Put plainly: Inhibition of human EZH2 using core histone and SAM as substrate at 1 uM by radioisotope-based MT HotSpot assay relative to control.
Sequence of Histone-lysine N-methyltransferase EZH2 (Homo sapiens) (Q15910 whole entry, looked up): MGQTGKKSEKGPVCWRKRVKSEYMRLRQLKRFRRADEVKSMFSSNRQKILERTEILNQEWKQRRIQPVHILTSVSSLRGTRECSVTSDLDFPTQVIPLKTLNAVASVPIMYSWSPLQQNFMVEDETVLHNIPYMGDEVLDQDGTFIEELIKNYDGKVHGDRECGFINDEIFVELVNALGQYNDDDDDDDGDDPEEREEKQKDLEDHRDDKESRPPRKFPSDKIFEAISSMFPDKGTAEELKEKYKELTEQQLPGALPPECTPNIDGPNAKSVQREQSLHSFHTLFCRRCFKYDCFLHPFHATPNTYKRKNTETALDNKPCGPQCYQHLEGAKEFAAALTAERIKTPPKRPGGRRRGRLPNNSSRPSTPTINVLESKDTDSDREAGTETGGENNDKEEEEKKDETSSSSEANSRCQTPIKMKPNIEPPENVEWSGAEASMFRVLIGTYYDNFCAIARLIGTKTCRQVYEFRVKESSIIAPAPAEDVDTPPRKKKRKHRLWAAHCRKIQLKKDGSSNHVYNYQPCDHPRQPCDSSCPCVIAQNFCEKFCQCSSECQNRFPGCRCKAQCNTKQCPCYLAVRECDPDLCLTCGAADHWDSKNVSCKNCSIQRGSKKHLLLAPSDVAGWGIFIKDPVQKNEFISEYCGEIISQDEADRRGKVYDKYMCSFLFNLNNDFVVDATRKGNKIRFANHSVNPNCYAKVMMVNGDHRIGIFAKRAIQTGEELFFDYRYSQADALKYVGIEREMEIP
The target of assay [5] is Histone-lysine N-methyltransferase, H3 lysine-79 specific (Homo sapiens) (UniProt Q8TEK3). The experiment in a line: Inhibition of human DOT1L using oligo nucleosomes and SAM as substrate at 1 uM by radioisotope-based MT HotSpot assay relative to control.
Sequence of Histone-lysine N-methyltransferase, H3 lysine-79 specific (Homo sapiens) (Q8TEK3 whole entry, looked up): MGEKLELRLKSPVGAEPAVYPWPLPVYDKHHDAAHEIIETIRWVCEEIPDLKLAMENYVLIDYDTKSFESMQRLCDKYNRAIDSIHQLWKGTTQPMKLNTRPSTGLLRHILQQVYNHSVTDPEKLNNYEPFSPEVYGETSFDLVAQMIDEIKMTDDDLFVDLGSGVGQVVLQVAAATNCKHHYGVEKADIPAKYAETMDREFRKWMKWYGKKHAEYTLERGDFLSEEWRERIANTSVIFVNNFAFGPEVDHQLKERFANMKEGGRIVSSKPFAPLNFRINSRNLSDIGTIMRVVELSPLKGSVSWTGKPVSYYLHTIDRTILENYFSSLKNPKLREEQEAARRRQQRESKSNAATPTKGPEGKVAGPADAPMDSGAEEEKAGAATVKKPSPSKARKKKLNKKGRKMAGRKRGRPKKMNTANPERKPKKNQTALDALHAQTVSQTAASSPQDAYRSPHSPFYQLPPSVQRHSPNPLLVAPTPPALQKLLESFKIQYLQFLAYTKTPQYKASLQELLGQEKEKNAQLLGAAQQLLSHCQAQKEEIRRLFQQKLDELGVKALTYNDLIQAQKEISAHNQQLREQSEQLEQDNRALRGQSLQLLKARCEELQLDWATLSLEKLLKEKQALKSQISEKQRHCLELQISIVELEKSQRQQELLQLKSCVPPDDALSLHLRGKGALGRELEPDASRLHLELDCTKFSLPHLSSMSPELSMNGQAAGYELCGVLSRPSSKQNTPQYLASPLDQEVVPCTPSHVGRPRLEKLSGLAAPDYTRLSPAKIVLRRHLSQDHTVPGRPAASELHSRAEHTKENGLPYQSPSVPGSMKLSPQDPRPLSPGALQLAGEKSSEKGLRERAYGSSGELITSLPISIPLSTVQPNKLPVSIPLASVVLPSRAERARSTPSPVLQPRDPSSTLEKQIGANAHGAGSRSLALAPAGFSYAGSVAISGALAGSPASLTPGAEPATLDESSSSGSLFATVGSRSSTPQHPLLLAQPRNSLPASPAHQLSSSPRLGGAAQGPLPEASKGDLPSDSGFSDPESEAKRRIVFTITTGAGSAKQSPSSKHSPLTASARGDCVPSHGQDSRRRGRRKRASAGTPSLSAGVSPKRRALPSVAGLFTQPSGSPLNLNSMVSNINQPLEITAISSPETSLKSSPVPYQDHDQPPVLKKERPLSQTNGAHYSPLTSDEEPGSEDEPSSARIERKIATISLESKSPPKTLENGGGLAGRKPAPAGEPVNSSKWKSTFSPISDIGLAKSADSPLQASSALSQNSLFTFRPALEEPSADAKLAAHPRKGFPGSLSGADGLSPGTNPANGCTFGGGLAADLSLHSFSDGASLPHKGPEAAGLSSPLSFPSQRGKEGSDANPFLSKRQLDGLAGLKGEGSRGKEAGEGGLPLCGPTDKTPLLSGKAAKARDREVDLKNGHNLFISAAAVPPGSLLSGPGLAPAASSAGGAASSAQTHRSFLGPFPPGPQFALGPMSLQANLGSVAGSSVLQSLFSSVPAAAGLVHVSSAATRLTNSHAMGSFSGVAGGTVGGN
The target in assay [6] is Protein arginine N-methyltransferase 6 (Homo sapiens) (UniProt Q96LA8). Put plainly: Inhibition of human PRMT6 using GST-GAR and SAM as substrate at 1 uM by radioisotope-based MT HotSpot assay relative to control.
Sequence of Protein arginine N-methyltransferase 6 (Homo sapiens) (Q96LA8 whole entry, looked up): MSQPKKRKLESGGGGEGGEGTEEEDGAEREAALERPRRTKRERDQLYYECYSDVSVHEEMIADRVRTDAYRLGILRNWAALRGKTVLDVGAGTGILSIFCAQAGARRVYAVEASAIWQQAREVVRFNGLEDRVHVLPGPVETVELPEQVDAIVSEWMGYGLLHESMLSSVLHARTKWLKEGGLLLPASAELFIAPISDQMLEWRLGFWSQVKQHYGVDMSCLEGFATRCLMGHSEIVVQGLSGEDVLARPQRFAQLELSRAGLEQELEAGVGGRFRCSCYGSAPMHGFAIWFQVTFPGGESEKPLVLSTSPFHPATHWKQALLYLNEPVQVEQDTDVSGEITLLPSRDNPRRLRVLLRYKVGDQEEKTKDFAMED
For assay [7], the target named is T1, Histone-lysine N-methyltransferase EHMT1 (Homo sapiens) (UniProt Q9H9B1).
T1 sequence (whole entry): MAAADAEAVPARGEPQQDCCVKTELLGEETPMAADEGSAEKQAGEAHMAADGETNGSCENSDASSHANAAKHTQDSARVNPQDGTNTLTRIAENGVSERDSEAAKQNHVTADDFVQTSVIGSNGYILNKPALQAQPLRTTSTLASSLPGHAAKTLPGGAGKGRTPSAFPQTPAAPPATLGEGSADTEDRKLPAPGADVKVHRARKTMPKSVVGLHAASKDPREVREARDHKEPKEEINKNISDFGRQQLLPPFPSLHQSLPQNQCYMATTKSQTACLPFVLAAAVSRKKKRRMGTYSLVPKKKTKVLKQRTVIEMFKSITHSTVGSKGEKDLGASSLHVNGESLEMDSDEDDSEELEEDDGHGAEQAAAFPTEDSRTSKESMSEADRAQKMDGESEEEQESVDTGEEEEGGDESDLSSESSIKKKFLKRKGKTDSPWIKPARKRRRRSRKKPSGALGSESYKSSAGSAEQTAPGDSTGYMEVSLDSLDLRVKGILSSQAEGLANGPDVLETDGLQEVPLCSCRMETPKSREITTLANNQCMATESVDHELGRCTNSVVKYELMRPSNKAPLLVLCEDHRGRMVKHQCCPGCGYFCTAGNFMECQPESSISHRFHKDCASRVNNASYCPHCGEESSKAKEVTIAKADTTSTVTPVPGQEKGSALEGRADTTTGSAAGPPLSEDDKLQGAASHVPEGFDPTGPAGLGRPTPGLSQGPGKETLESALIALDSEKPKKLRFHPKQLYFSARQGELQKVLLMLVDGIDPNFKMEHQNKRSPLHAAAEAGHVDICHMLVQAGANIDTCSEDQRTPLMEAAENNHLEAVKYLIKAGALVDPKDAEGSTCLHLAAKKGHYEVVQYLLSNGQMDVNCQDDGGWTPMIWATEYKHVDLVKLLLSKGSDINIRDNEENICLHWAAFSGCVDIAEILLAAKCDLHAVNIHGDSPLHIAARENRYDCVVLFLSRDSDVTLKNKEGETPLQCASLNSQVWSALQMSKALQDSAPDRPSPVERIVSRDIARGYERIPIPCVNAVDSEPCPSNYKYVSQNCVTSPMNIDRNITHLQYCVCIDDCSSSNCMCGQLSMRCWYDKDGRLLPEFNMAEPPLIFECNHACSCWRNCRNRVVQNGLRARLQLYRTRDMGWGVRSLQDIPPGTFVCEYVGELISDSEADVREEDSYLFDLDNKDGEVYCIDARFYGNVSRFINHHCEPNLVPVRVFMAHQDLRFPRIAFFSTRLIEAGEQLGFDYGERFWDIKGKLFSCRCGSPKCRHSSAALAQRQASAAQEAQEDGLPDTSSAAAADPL
The experiment in a line: Inhibition of human GLP using Histone H3 and SAM as substrate at 1 uM by radioisotope-based MT HotSpot assay relative to control.

In assay [8] the test system is HCT-116. The experiment in a line: Effect on DNMT1 mRNA level in human HCT-116 cells at 500 nM incubated for 24 hrs by RT-qPCR analysis. The assay is classed as functional, cell-based.
Assay [9] deals with DNA (cytosine-5)-methyltransferase 1 (Homo sapiens, UniProt P26358). The experiment in a line: Inhibition of human DNMT1 (350 to 1600 residues) extracted from Escherichia coli BL21 (DE3)-codon plus-RIL cells in presence of SAM and hemimethylated DNA.
Sequence of DNA (cytosine-5)-methyltransferase 1 (P26358 whole entry, the tested form may be a part): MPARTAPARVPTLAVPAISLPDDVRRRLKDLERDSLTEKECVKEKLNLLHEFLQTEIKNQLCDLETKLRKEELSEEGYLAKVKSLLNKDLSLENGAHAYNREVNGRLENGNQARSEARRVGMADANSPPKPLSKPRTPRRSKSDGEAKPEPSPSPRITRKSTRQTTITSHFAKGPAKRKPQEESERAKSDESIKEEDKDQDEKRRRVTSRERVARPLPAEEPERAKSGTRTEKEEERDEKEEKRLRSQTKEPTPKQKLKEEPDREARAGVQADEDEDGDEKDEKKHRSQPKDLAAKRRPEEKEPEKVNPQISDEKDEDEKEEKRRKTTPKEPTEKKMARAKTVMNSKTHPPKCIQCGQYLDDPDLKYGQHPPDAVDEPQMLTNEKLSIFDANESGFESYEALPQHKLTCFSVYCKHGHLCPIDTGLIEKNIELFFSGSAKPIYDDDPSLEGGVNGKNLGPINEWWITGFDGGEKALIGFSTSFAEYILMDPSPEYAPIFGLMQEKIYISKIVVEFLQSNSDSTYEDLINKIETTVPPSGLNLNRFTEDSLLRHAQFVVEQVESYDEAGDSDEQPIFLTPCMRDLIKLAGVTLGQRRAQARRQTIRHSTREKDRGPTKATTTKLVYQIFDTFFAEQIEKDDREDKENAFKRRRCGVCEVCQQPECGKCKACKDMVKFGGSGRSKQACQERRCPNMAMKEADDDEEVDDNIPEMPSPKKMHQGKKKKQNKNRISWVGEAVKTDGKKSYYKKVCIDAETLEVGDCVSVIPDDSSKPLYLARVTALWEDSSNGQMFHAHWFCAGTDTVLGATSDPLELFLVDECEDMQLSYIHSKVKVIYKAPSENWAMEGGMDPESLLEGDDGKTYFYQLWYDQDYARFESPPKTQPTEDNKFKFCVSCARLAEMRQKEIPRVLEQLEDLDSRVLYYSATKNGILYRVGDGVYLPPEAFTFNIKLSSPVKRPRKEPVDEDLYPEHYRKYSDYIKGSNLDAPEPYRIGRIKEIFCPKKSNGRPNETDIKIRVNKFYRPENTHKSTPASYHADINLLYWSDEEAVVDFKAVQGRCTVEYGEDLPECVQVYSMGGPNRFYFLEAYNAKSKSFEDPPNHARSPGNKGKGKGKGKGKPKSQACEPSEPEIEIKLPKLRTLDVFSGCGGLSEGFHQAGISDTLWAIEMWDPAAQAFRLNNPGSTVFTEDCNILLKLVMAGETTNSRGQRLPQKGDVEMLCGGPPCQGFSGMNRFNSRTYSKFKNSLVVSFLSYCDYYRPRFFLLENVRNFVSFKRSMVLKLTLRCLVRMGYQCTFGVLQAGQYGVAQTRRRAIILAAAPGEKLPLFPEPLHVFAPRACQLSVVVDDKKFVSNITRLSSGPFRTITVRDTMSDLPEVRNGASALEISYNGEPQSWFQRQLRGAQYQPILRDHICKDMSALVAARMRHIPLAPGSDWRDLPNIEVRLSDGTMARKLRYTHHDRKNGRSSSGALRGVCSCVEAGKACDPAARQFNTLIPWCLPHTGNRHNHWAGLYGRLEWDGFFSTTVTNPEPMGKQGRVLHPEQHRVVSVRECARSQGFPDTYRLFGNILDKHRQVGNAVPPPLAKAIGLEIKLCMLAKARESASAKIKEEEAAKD
Assay [10] concerns MDA-MB-468. Put plainly: Effect on DNMT1 mRNA level in human MDA-MB-468 cells at 500 nM incubated for 24 hrs by RT-qPCR analysis. It counts as functional, cell-based. (In general: Real-time PCR tracks product formation cycle by cycle.)
In assay [11] the test system is HCT-116. The experiment in a line: Induction of molecular glue effect mediated DNMT3B degradation in human HCT-116 cells assessed as reduction in DNMT3B protein level at 500 nM incubated for 24 hrs by Western blot analysis. It counts as cell-based.
In assay [12] the test system is HCT-116. The experiment in a line: Induction of molecular glue effect mediated DNMT1 degradation in human HCT-116 cells assessed as reduction in DNMT1 protein level by measuring maximal efficacy at 1 uM incubated for 24 hrs by Western blot analysis relative to control. The assay is classed as cell-based.
The nature of assay [13]: Induction of molecular glue effect mediated DNMT1 degradation in human NCI-H1299 cells assessed as reduction in DNMT1 protein level incubated for 24 hrs by Western blot analysis. Conditions: NCI-H1299, 24 h. The assay is classed as cell-based.
The subject of assay [14] is HCT-116. The experiment in a line: Induction of molecular glue effect mediated DNMT1 degradation in human HCT-116 cells assessed as reduction in DNMT1 protein level at 100 nM preincubated with heclin for 2 hrs followed by compound addition and measured after 24 hrs by Western blot analysis. It counts as cell-based.
The subject of assay [15] is MDA-MB-468. Put plainly: Antiproliferative activity against human MDA-MB-468 cells assessed as inhibition of cell growth upto 10 uM incubated for 7 days by CCK8 assay relative to control. Conditions: time 7 day, up to 10 µM. It counts as functional. A general note: Tetrazolium dyes change colour on reduction, which living cells bring about.
Assay [16] concerns HCT-116. Put plainly: Induction of molecular glue effect mediated DNMT1 degradation in human HCT-116 cells assessed as reduction in DNMT1 protein level at 100 nM preincubated with lysosome inhibitor CQ for 2 hrs followed by compound addition and measured after 24 hrs by Western blot analysis. The assay is classed as cell-based.
The subject of assay [17] is HCT-116. The experiment in a line: Induction of molecular glue effect mediated DNMT1 degradation in human HCT-116 cells assessed as reduction in DNMT1 protein level at 100 nM preincubated with MLN4924 for 2 hrs followed by compound addition and measured after 24 hrs by Western blot analysis. It counts as cell-based.
The next assay relates to NCI-H1299. The experiment in a line: Induction of molecular glue effect mediated DNMT1 degradation in human NCI-H1299 cells assessed as reduction in DNMT1 protein level at 100 nM preincubated with MG132 for 2 hrs followed by compound addition and measured after 24 hrs by Western blot analysis. The assay is classed as cell-based.

Each structure is given as a SMILES string. Active and inactive are the calls of the source. No cut-off for these calls is given here.

As for `CCc1c(C#N)c(SC(C(N)=O)c2ccccc2)nc(N(C)CC(=O)NC)c1C#N` (stereo not drawn), the Activity entry in the assay on HCT-116 [1] was “Time-dependent-effect”; in the assay with HCT-116 [14], “Not active; Partial Rescue Of Degradation Observed”. Also, the result in the assay with MDA-MB-468 [2], in the assay on HCT-116 [16] and in the assay with HCT-116 [17] was Active. Besides, the inhibition in assay [3], in assay [4], in [5], in assay [6] and in [7] was less than 20% throughout. For the same molecule, the outcome with HCT-116 [8], in the assay on MDA-MB-468 [10], in the assay with HCT-116 [11] and in the assay on NCI-H1299 was inactive. Moreover, the concentration for half-maximal inhibition (IC50) in assay [9] amounted to 430 nM. The Emax in the assay with HCT-116 [12] was 89%. Moreover, in assay [13], the DC50 amounted to 86 nM. The “inhibition (INH)” value in the assay on MDA-MB-468 [15] was less than 50%.

Broadly, the inhibition is the relative decrease from the control value, in per cent. A word on the IC50: it is the midpoint of a concentration-inhibition curve. For orientation: Emax means the greatest response seen or fitted, relative to the assay's reference. One may read the DC50 as the concentration giving 50% degradation.
